Data: ChEMBL document CHEMBL4152235, “Synthesis, anionophoric activity and apoptosis-inducing bioactivity of benzimidazolyl-based transmembrane anion transporters” (Eur J Med Chem, 2018)
pEC50, pIC50: −log10 of the molar value. Active and inactive are the calls of the source. The calls are words filed in the database; no cut-off is given here.

How the values were obtained:
HeLa [1] = test: Induction of apoptosis in human HeLa cells assessed as formation of apoptotic bodies at 2.5 uM after 24 hrs by Hoechst 33342 staining based fluorescence microscopic analysis; type: functional, cell-based
HeLa [2] = test: Ionophoric activity across human HeLa cells assessed as chloride ion efflux up to 10 uM after 2 hrs by MQAE dye based fluorescence assay; type: cell-based
[3] = (§1) Ionophoric activity across pyranine dye encapsulated pH 7 egg yolk L-alpha-phosphatidylcholine-based liposomal membranes assessed as chloride ion transport by measuring induction of pH discharge at 1.95 x 10^-3 mol% after 20 mins in presence of LiCl loaded external vesicles by fluorescence method
[4] = as §1, with “measuring initial rate constant for” for “measuring”, “4.88” for “1.95”, “10^-4” for “10^-3”, “NaCl” for “LiCl”, “method (reference value: 5.03 +/- 1.02 10^-3/min)” for “method”
[5] = Ionophoric activity across pyranine dye encapsulated pH 7 egg yolk L-alpha-phosphatidylcholine-based liposomal membranes assessed as bromide ion transport by measuring induction of pH discharge at 1.95 x 10^-3 mol% after 20 mins in presence of NaBr loaded external vesicles by fluorescence method
HeLa [6] = test: Ionophoric activity across human HeLa cells assessed as chloride ion efflux at 10 uM after 3 hrs by acridine orange staining based fluorescence microscopic analysis; type: cell-based
HeLa [7] = test: Cytotoxicity against human HeLa cells assessed as reduction in cell viability after 48 hrs by MTT assay; type: functional, cell-based
[8] = Ionophoric activity across pyranine dye encapsulated pH 7 egg yolk L-alpha-phosphatidylcholine-based liposomal membranes assessed as chloride ion transport by measuring induction of pH discharge at 1.95 x 10^-3 mol% after 20 mins in presence of RbCl loaded external vesicles by fluorescence method
HeLa [9] = test: Induction of apoptosis in human HeLa cells assessed as formation of bean shaped nuclei at 2.5 uM after 24 hrs by Hoechst 33342 staining based fluorescence microscopic analysis; type: functional, cell-based
[10] = Ionophoric activity across lucigenin probe encapsulated pH 7 egg yolk L-alpha-phosphatidylcholine-based large unilamellar vesicles loaded with Na2SO4 assessed as chloride ion efflux at 7.81 x 10^-3mol% after 20 mins in presence of NaCl loaded external vesicles by fluorescence method
HeLa [11] = test: Induction of apoptosis in human HeLa cells assessed as chromatin fragmentation at 2.5 uM after 24 hrs by Hoechst 33342 staining based fluorescence microscopic analysis; type: functional, cell-based
[12] = (§2) Ionophoric activity across pyranine dye encapsulated pH 7 egg yolk L-alpha-phosphatidylcholine-based liposomal membranes assessed as chloride ion transport by measuring induction of pH discharge after 20 mins in presence of NaCl loaded external vesicles by fluorescence method
MCF7 [13] = test: Cytotoxicity against human MCF7 cells assessed as reduction in cell viability after 48 hrs by MTT assay; type: functional, cell-based; conditions: MCF7, 48 h
[14] = Ionophoric activity across pyranine dye encapsulated pH 7 egg yolk L-alpha-phosphatidylcholine-based liposomal membranes assessed as iodide ion transport by measuring induction of pH discharge at 1.95 x 10^-3 mol% after 20 mins in presence of NaI loaded external vesicles by fluorescence method
MCF7 [15] = test: Cytotoxicity against human MCF7 cells assessed as reduction in cell viability at 50 uM after 48 hrs by MTT assay relative to control; type: functional; conditions: MCF7, 48 h
[16] = Binding affinity to chloride ion at 1.5 x 10^-5M using tetra(n-butyl)ammonium chloride measured after 5 mins by spectrophotometric titration method
HepG2 [17] = test: Cytotoxicity against human HepG2 cells assessed as reduction in cell viability at 50 uM after 48 hrs by MTT assay relative to control; type: functional; conditions: HepG2, 48 h
[18] = Ionophoric activity across pyranine dye encapsulated pH 7 egg yolk L-alpha-phosphatidylcholine-based liposomal membranes assessed as chloride ion transport by measuring induction of pH discharge at 1.95 x 10^-3 mol% after 20 mins in presence of KCl loaded external vesicles by fluorescence method
[19] = as §2, with “measuring initial rate constant for” for “measuring”, “discharge at 9.77 x 10^-4 mol%” for “discharge”, “method (reference value: 5.03 +/- 1.02 10^-3/min)” for “method”
HeLa [20] = test: Cytotoxicity against human HeLa cells assessed as reduction in cell viability at 50 uM after 48 hrs by MTT assay relative to control; type: functional
HeLa [21] = test: Cytotoxicity against human HeLa cells assessed as reduction in cell viability up to 10 uM after 12 hrs in presence of chloride by MTT assay; type: functional, cell-based
MCF7 [22] = test: Cytotoxicity against human MCF7 cells assessed as reduction in cell viability up to 10 uM after 12 hrs in absence of chloride by MTT assay; type: functional, cell-based
[23] = Ionophoric activity across pyranine dye encapsulated pH 7 egg yolk L-alpha-phosphatidylcholine-based liposomal membranes assessed as chloride ion transport by measuring induction of pH discharge after 20 mins in presence of NaCl loaded external vesicles by fluorescence method relative to m-Bimbe
[24] = as §1, with “measuring initial rate constant for” for “measuring”, “7.81” for “1.95”, “NaCl” for “LiCl”, “method (reference value: 5.03 +/- 1.02 10^-3/min)” for “method”
[25] = (§3) Ionophoric activity across pyranine dye encapsulated pH 7 egg yolk L-alpha-phosphatidylcholine-based liposomal membranes assessed as chloride ion transport by measuring induction of pH discharge at 1.95 x 10^-3 mol% after 20 mins in presence of NaCl loaded external vesicles by fluorescence method
A549 [26] = test: Cytotoxicity against human A549 cells assessed as reduction in cell viability after 48 hrs by MTT assay; type: functional, cell-based; conditions: A549, 48 h
MCF7 [27] = test: Ionophoric activity across human MCF7 cells assessed as chloride ion efflux up to 10 uM after 2 hrs by MQAE dye based fluorescence assay; type: cell-based
HeLa [28] = test: Disruption of mitochondrial membrane potential in human HeLa cells assessed as decrease in ratio of red to green fluorescence at 5 to 10 uM after 24 hrs by JC1 staining based fluorescence microscopic analysis; type: functional, cell-based
[29] = as §3, with “measuring initial rate constant for” for “measuring”, “3.91” for “1.95”, “method (reference value: 5.03 +/- 1.02 10^-3/min)” for “method”
A549 [30] = test: Cytotoxicity against human A549 cells assessed as reduction in cell viability at 50 uM after 48 hrs by MTT assay relative to control; type: functional; conditions: A549, 48 h
[31] = Ionophoric activity across pyranine dye encapsulated pH 7 egg yolk L-alpha-phosphatidylcholine-based liposomal membranes assessed as nitrate ion transport by measuring induction of pH discharge at 1.95 x 10^-3 mol% after 20 mins in presence of NaNO3 loaded external vesicles by fluorescence method
L02 = test: Cytotoxicity against human LO2 cells assessed as reduction in cell viability after 48 hrs by MTT assay; type: cell-based; conditions: L02, 48 h
HeLa [32] = test: Induction of apoptosis in human HeLa cells assessed as chromatin condensation at 2.5 uM after 24 hrs by Hoechst 33342 staining based fluorescence microscopic analysis; type: functional, cell-based
[33] = Ionophoric activity across lucigenin probe encapsulated pH 7 egg yolk L-alpha-phosphatidylcholine-based large unilamellar vesicles loaded with Na2SO4 assessed as chloride ion efflux at 7.81 x 10^-3mol% after 20 mins in presence of NaCl/Na2SO4 loaded external vesicles by fluorescence method
HepG2 [34] = test: Cytotoxicity against human HepG2 cells assessed as reduction in cell viability after 48 hrs by MTT assay; type: functional, cell-based; conditions: HepG2, 48 h
MCF7 [35] = test: Cytotoxicity against human MCF7 cells assessed as reduction in cell viability up to 10 uM after 12 hrs in presence of chloride by MTT assay; type: functional, cell-based
[36] = Ionophoric activity across pyranine dye encapsulated pH 7 egg yolk L-alpha-phosphatidylcholine-based liposomal membranes assessed as chloride ion transport by measuring induction of pH discharge at 1.95 x 10^-3 mol% after 20 mins in presence of CsCl loaded external vesicles by fluorescence method
[37] = Binding affinity to chloride ion assessed as 1:1 compound-Cl- complex formation at 4.1 mM using tetra(n-butyl)ammonium chloride by ESI MS spectrometric method
HeLa [38] = test: Cytotoxicity against human HeLa cells assessed as reduction in cell viability up to 10 uM after 12 hrs in absence of chloride by MTT assay; type: functional, cell-based
[39] = as §3, with “measuring initial rate constant for” for “measuring”, “method (reference value: 5.03 +/- 1.02 10^-3/min)” for “method”
[40] = Ionophoric activity across pyranine dye encapsulated pH 7 POPC-cholesterol-based liposomal membranes assessed as chloride ion transport by measuring induction of pH discharge at 7.81 x 10^-3mol% after 20 mins in presence of NaCl loaded external vesicles by fluorescence method

- Activity [3]: Active
- K [4]: 2.11 ×10⁻² /min
- Activity [5]: inactive
- Activity [8]: Active
- Activity [10]: inactive
- EC50 [12]: 3.76 ×10⁻³ mol%
- pEC50 ([12]; read-out: EC50): 7.30
- Activity [14]: inactive
- Ka [16]: 7.53 ×10³ /M
- Activity [18]: Active
- K [19]: 4.08 ×10⁻² /min
- fold change (FC) [23]: 1720
- K [24]: 1.87 ×10⁻¹ /min
- Activity [25]: Active
- K [29]: 1.33 ×10⁻¹ /min
- Activity [31]: inactive
- Activity [33]: inactive
- Activity [36]: Active
- Activity [37]: Active
- K [39]: 8.14 ×10⁻² /min
- Activity [40]: inactive
Structure (SMILES): O=[N+]([O-])c1cc(-c2nc3ccc(C(F)(F)F)cc3[nH]2)cc(-c2nc3ccc(C(F)(F)F)cc3[nH]2)c1
- Activity (HeLa [1]): Active
- Activity (HeLa [2]): Active
- Activity (HeLa [6]): Active
- pIC50 (HeLa [7]): 5.72
- Activity (HeLa [9]): Active
- Activity (HeLa [11]): Active
- pIC50 (MCF7 [13]): 5.01 to 5.03
- inhibition at 50 µM (MCF7 [15]): 99.2%
- inhibition at 50 µM (HepG2 [17]): 101%
- inhibition at 50 µM (HeLa [20]): 94.9%
- Activity (HeLa [21]): Active
- Activity (MCF7 [22]): Active
- pIC50 (A549 [26]): 5.41 to 5.42
- Activity (MCF7 [27]): Active
- Activity (HeLa [28]): Active
- inhibition at 50 µM (A549 [30]): 100%
- pIC50 (L02): 5.43
- Activity (HeLa [32]): Active
- pIC50 (HepG2 [34]): 5.39
- Activity (MCF7 [35]): Active
- Activity (HeLa [38]): Active
